The values below come from paper PMC10251509, “Ultrafast Fragment Screening Using Photo-Hyperpolarized (CIDNP) NMR” (Journal of the American Chemical Society, 2023).

Test [1] concerns the target T1, PIN1 (Homo sapiens, UniProt Q13526).
T1 construct: polyhistidine (N); made in house; host or cells: Escherichia coli BL21 (DE3)
The test is described as follows: automated flow-through photo-CIDNP 1D 1H NMR screening against PIN1. It counts as binding. To be noted: flow cell, 50 μM compound, 20 μM PIN1, 1.5 s irradiation. From the text:
While several other hyperpolarization methods yield higher SNE and have been established for ligand binding detection, their implementation into a highly automated system remains challenging.[43],[44] Photo-CIDNP hyperpolarization presents the advantage of being generated in situ, at room temperature, in solution, simply by shining light on the sample. To illustrate the agility of the photo-CIDNP ligand screening approach, we designed a flow-through setup compatible with a cryoprobe (Figure 7C). The setup consists of a pump, an autosampler, a valve, and a 3D printed flow cell (Figure 7B,C), which comprises an optic fiber for light irradiation coming from a 1.6 W diode laser emitting at 450 nm from Thorlabs. […] (iv) While the flow is stopped, a photo-CIDNP ^1H 1D NMR spectrum is recorded, as described above. […]
Figure 7 Automated screening of PIN1 with Nmhare1.0 library using photo-CIDNP 1D ^1H NMR. […] The photo-CIDNP NMR experiment is then recorded with the pulse program triggering light irradiation, and subsequently performing the NMR experiment acquisition, the NMR experiment can comprehend different numbers of transients (NS) and indirect time dimension points (TD) that will increase the measurement time accordingly; finally, the sample is washed by restoring the flow in the fluidic connection. […]

Test [2] has as its target T1, PIN1. Description: photo-CIDNP 1D 1H NMR fragment screening (polarization ratio) against PIN1. In kind it is binding. As to the method: The combination of these two effects yields the quenching of the photo-CIDNP hyperpolarized signal in the case of binding to a protein, as L decreases and R1,eff increases.
It is also overexpressed in many human cancer cells.[16] It is thus regarded as a potential drug target, and several studies attempted to discover hits and unravel the structure–activity relationship.[3],[4],[36] […] The NMR experiments were performed using single-scan NMR experiments, comprising light irradiation, an excitation pulse, and a water suppression scheme, as described previously.[13] Although each experiment was recorded in only 2 s, the limiting step was the sample tube exchange. Indeed, the optic fiber needed to be plugged into the tubes while changing the samples, which required ca. 15 s per tube using a house-made connector tightening the tube and the optic fiber with O-rings (Figure S2). Removing the sample from and bringing the new sample into the spectrometer requires an additional 30 s, and a shimming step must be performed for each new tube (30 s).
As proposed in the theoretical part, the photo-CIDNP traces were recorded in the presence and absence of PIN1. The peak intensity and chemical shifts were analyzed pairwise to identify the hits. […] The reference apo-PIN1 sample was spiked with 1.9 μL of DMSO to compensate for the DMSO that is introduced upon fragment addition, as the fragments are stored in stock solutions of 5 mM 90% DMSO-d6 and 10% D2O.
The laser used was a Thorlabs L450P1600MM, a diode laser emitting at 450 nm. The laser light was coupled (using appropriate coupling optics) into an optical fiber (Thorlabs, FG950UEC) of length 10 m and a diameter of 0.95 mm. The end of the fiber was inserted into the sample solution inside the 3 mm NMR glass tube to a depth of about 5 mm above the NMR coil region. The library QC and the control binding experiments for PIN1 were measured on a Bruker Avance III HD 600 MHz spectrometer equipped with a cryoprobe and SampleJet.

T1 sequence (Q13526 whole entry): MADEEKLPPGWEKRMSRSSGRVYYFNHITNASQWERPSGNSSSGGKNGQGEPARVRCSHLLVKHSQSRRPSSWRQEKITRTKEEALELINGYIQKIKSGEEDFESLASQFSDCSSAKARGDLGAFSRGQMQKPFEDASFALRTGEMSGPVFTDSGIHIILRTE

On to `Cc1cccc(-c2nc(C)c(C(=O)O)[nH]2)c1` [Compound 13, reference compound], for which, on PIN1 [1], the “photo-CIDNP signal in presence vs absence of PIN1” value is recorded as “signal reduction”. The polarization ratio at PIN1 [2] (50 μM ligand, ±25 μM PIN1, 20 μM fluorescein, 0 = total binding, 1 = no interaction, hit <0.8) was found to be 0.38; on PIN1 [2] (low concentration: 20 μM ligand (compound 1: 5 μM), ±2 μM PIN1, single scan) it was 0.73.
